According to PubChem BioAssay AID330 (DTP/NCI, 2004):
Several values for one entry are separate records, joined by “and”; a condition that tells them apart may be missing. Identical values can stand only once. Inconclusive results and toxic doses are left out.

Test system: P388 leukemia ip, CD2F1 mice, survival T/C
Experiment: NCI In Vivo Anticancer Drug Screen. Data for tumor model P388 Leukemia (intraperitoneal) in CD2F1 (CDF1) mice
Settings: endpoint: median survival time, higher = longer survival
Procedure, shortened: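 Mice carrying the transplanted tumor received test compound or vehicle. Survival was recorded in each group, and the value is the treated-group measurement divided by that of the vehicle-treated control group.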

[1] = dose: 100.0 mg/kg/injection, schedule: Q04DX003 (ip), vehicle: saline with Tween-80
[2] = dose: 200.0 mg/kg/injection, schedule: Q04DX003 (ip), vehicle: saline with Tween-80
[3] = dose: 50.0 mg/kg/injection, schedule: Q01DX005 (ip), vehicle: saline with Tween-80
[4] = dose: 100.0 mg/kg/injection, schedule: Q01DX005 (ip), vehicle: saline with Tween-80
[5] = dose: 200.0 mg/kg/injection, schedule: Q01DX005 (ip), vehicle: saline with Tween-80
[6] = dose: 12.5 mg/kg/injection, schedule: Q01DX009 (ip), vehicle: Klucel (hydroxypropylcellulose) (HPC)
[7] = dose: 50.0 mg/kg/injection, schedule: Q01DX009 (ip), vehicle: saline with Tween-80
[8] = dose: 100.0 mg/kg/injection, schedule: Q01DX009 (ip), vehicle: saline with Tween-80
[9] = dose: 50.0 mg/kg/injection, schedule: Q01DX009 (ip), vehicle: saline
[10] = dose: 100.0 mg/kg/injection, schedule: Q01DX009 (ip), vehicle: saline
[11] = dose: 200.0 mg/kg/injection, schedule: Q01DX009 (ip), vehicle: saline
[12] = dose: 60.0 mg/kg/injection, schedule: Q01DX005 (ip), vehicle: saline with Tween-80
[13] = dose: 120.0 mg/kg/injection, schedule: Q01DX005 (ip), vehicle: saline with Tween-80
[14] = dose: 240.0 mg/kg/injection, schedule: Q01DX005 (ip), vehicle: saline with Tween-80

## C=CCOc1ccc2ccc(=O)oc2c1
dose: 50.0 mg/kg/injection, schedule: Q04DX003 (ip), vehicle: saline with Tween-80
  T/C: 109 % of control
[1]
  T/C: 104 % of control
[2]
  T/C: 101 % of control

## Nc1cccc2c1C(=O)c1ccccc1C2=O
dose: 50.0 mg/kg/injection, schedule: Q04DX003 (ip), vehicle: Klucel (hydroxypropylcellulose) (HPC)
  T/C: 100 % of control
dose: 100.0 mg/kg/injection, schedule: Q04DX003 (ip), vehicle: Klucel (hydroxypropylcellulose) (HPC)
  T/C: 101 % of control
dose: 200.0 mg/kg/injection, schedule: Q04DX003 (ip), vehicle: Klucel (hydroxypropylcellulose) (HPC)
  T/C: 91 % of control
dose: 400.0 mg/kg/injection, schedule: Q04DX003 (ip), vehicle: Klucel (hydroxypropylcellulose) (HPC)
  T/C: 92 % of control

## CSc1nc2[nH]c(=O)[nH]c(=O)c2[nH]1
[3]
  T/C: 95 % of control
[4]
  T/C: 94 % of control
[5]
  T/C: 108 % of control

## CC(C)(C)C(N)=S=O
dose: 50.0 mg/kg/injection, schedule: Q01DX005 (ip), vehicle: saline
  T/C: 101 % of control
dose: 100.0 mg/kg/injection, schedule: Q01DX005 (ip), vehicle: saline
  T/C: 106 % of control
dose: 200.0 mg/kg/injection, schedule: Q01DX005 (ip), vehicle: saline
  T/C: 106 % of control

## CCCCCC1C(=O)CNC1(C(=O)OCC)C(=O)OCC (stereo unspecified)
[6]
  T/C: 104 % of control
dose: 25.0 mg/kg/injection, schedule: Q01DX009 (ip), vehicle: Klucel (hydroxypropylcellulose) (HPC)
  T/C: 108 % of control
dose: 50.0 mg/kg/injection, schedule: Q01DX009 (ip), vehicle: Klucel (hydroxypropylcellulose) (HPC)
  T/C: 104 % of control
dose: 100.0 mg/kg/injection, schedule: Q01DX009 (ip), vehicle: Klucel (hydroxypropylcellulose) (HPC)
  T/C: 88 % of control
dose: 200.0 mg/kg/injection, schedule: Q01DX009 (ip), vehicle: Klucel (hydroxypropylcellulose) (HPC)
  T/C: 89 % of control

## CCCCCCCCC(=O)c1c(OC)oc(/C=N/O)cc1=O
[6]
  T/C: 87 % of control

## CCOc1ccc2c(N/N=C/c3ccc(N(CCCl)CCCl)cc3)cc(C)nc2c1
dose: 12.5 mg/kg/injection, schedule: Q01DX009 (ip), vehicle: saline with Tween-80
  T/C: 96 % of control
dose: 25.0 mg/kg/injection, schedule: Q01DX009 (ip), vehicle: saline with Tween-80
  T/C: 94 % of control
[7]
  T/C: 99 % of control and 88 % of control

## O=C(/C=C/c1ccc2c(c1)OCO2)C1CC1
[7]
  T/C: 92 % of control
[8]
  T/C: 92 % of control
dose: 200.0 mg/kg/injection, schedule: Q01DX009 (ip), vehicle: saline with Tween-80
  T/C: 96 % of control

## CC(C)(C)SC(=O)c1ccco1
[7]
  T/C: 118 % of control
[8]
  T/C: 114 % of control

## CC1NC(=O)N(C(C)C)C1=O (stereo unspecified)
[3]
  T/C: 100 % of control
[4]
  T/C: 100 % of control
[5]
  T/C: 106 % of control

## Cc1c2cnccc2c(C)c2c1c1ccccc1n2CCCCCCCCCCCCn1c2ccccc2c2c(C)c3cnccc3c(C)c21
dose: 25.0 mg/kg/injection, schedule: Q04DX002 (ip), vehicle: saline with Tween-80
  T/C: 98 % of control
dose: 50.0 mg/kg/injection, schedule: Q04DX002 (ip), vehicle: saline with Tween-80
  T/C: 100 % of control
dose: 100.0 mg/kg/injection, schedule: Q04DX002 (ip), vehicle: saline with Tween-80
  T/C: 100 % of control
dose: 200.0 mg/kg/injection, schedule: Q04DX002 (ip), vehicle: saline with Tween-80
  T/C: 98 % of control

## CC(C)N(CCNc1cccnc1[N+](=O)[O-])C(C)C
[9]
  T/C: 115 % of control
[10]
  T/C: 108 % of control
[11]
  T/C: 117 % of control

## COc1cc2c[n+]3c(c(C)c2cc1OC)-c1cc2c(cc1CC3)OCO2
dose: 6.25 mg/kg/injection, schedule: Q04DX003 (ip), vehicle: distilled water + Tween-80
  T/C: 106 % of control
dose: 12.5 mg/kg/injection, schedule: Q04DX003 (ip), vehicle: distilled water + Tween-80
  T/C: 113 % of control
dose: 25.0 mg/kg/injection, schedule: Q04DX003 (ip), vehicle: distilled water + Tween-80
  T/C: 116 % of control
dose: 50.0 mg/kg/injection, schedule: Q04DX003 (ip), vehicle: distilled water + Tween-80
  T/C: 108 % of control

## COc1cc(C2C3=C(CCC3)Oc3cc4c(cc32)OCO4)cc(OC)c1OC (stereo unspecified)
[12]
  T/C: 91 % of control
[13]
  T/C: 86 % of control
[14]
  T/C: 86 % of control

## COC(=O)C1=C(C)NC(=S)NC1c1ccco1 (stereo unspecified)
[1]
  T/C: 95 % of control
[2]
  T/C: 95 % of control
dose: 400.0 mg/kg/injection, schedule: Q04DX003 (ip), vehicle: saline with Tween-80
  T/C: 100 % of control

## CCOC(=O)CNC(=O)C(CSSCC(NC(=O)OCc1ccccc1)C(=O)O)NC(=O)OCc1ccccc1 (stereo unspecified)
dose: 50.0 mg/kg/injection, schedule: Q01DX005 (ip), vehicle: Klucel (hydroxypropylcellulose) (HPC)
  T/C: 97 % of control
dose: 100.0 mg/kg/injection, schedule: Q01DX005 (ip), vehicle: Klucel (hydroxypropylcellulose) (HPC)
  T/C: 97 % of control
dose: 200.0 mg/kg/injection, schedule: Q01DX005 (ip), vehicle: Klucel (hydroxypropylcellulose) (HPC)
  T/C: 99 % of control

## Cc1cc2c(c3oc(C4(C)OC4C4OC4C)cc(=O)c13)C(=O)c1c(O)c(C3CC(C)(N(C)C)C(O)C(C)O3)cc(C3CC(N(C)C)C(O)C(C)O3)c1C2=O (stereo unspecified)
dose: 0.02 mg/kg/injection, schedule: Q01DX005 (ip), vehicle: saline
  T/C: 150 % of control
dose: 0.02 mg/kg/injection, schedule: Q03HX008 (ip), vehicle: saline
  T/C: 122 % of control
dose: 0.02 mg/kg/injection, schedule: Q03HX016 (ip), vehicle: saline
  T/C: 113 % of control
dose: 0.03 mg/kg/injection, schedule: Q01DX009 (ip), vehicle: saline
  T/C: 95 % of control
dose: 0.03 mg/kg/injection, schedule: Q03HX008 (ip), vehicle: saline
  T/C: 118 % of control
dose: 0.03 mg/kg/injection, schedule: Q03HX016 (ip), vehicle: saline
  T/C: 109 % of control
dose: 0.03 mg/kg/injection, schedule: Q04DX003 (ip), vehicle: saline
  T/C: 150 % of control
dose: 0.06 mg/kg/injection, schedule: Q01DX005 (ip), vehicle: saline
  T/C: 100 % of control
dose: 0.06 mg/kg/injection, schedule: Q01DX009 (ip), vehicle: saline
  T/C: 104 % of control
dose: 0.06 mg/kg/injection, schedule: Q03HX008 (ip), vehicle: saline
  T/C: 122 % of control
dose: 0.06 mg/kg/injection, schedule: Q04DX003 (ip), vehicle: saline
  T/C: 150 % of control
dose: 0.06 mg/kg/injection, schedule: Q08DX002 (ip), vehicle: saline
  T/C: 150 % of control
dose: 0.12 mg/kg/injection, schedule: Q01DX001 (ip), vehicle: saline
  T/C: 150 % of control
dose: 0.12 mg/kg/injection, schedule: Q03HX016 (ip), vehicle: saline
  T/C: 113 % of control
dose: 6.25 micrograms/kg/injection, schedule: Q01DX009 (ip), vehicle: saline
  T/C: 123 % of control
dose: 10.0 micrograms/kg/injection, schedule: Q01DX009 (ip), vehicle: water
  T/C: 99 % of control
dose: 12.5 micrograms/kg/injection, schedule: Q01DX009 (ip), vehicle: saline
  T/C: 101 % of control

## O=Nc1c[nH]c(=O)[nH]c1=O
[9]
  T/C: 97 % of control
[10]
  T/C: 98 % of control
[11]
  T/C: 100 % of control

## CCCCCCCC(=O)NN
dose: 12.5 mg/kg/injection, schedule: Q01DX009 (ip), vehicle: suspension in saline
  T/C: 96 % of control
dose: 25.0 mg/kg/injection, schedule: Q01DX009 (ip), vehicle: suspension in saline
  T/C: 96 % of control
dose: 50.0 mg/kg/injection, schedule: Q01DX009 (ip), vehicle: suspension in saline
  T/C: 97 % of control
dose: 100.0 mg/kg/injection, schedule: Q01DX009 (ip), vehicle: suspension in saline
  T/C: 96 % of control

## c1nnc(NC(Nc2nncs2)C2CCCCC2)s1
dose: 30.0 mg/kg/injection, schedule: Q01DX005 (ip), vehicle: saline with Tween-80
  T/C: 98 % of control
[12]
  T/C: 95 % of control
[13]
  T/C: 90 % of control and 92 % of control
[14]
  T/C: 121 % of control

## CCCCNc1cc(-c2c(N)nc(N)nc2CC)ccc1[N+](=O)[O-]
[3]
  T/C: 101 % of control
[4]
  T/C: 101 % of control
[5]
  T/C: 94 % of control
